Assays:
Novikoff hepatoma = Novikoff hepatoma tumor model in rats, IV infusion, tumor volume; type: in vivo, rat; conditions: for inhibition of tumor growth if the tumor was relatively small at the beginning of the treatment: Novikoff hepatoma, IV infusion, in some cases apoptosis; for inhibition of the tumor growth (tumor size): subcutaneous Novikoff hepatoma, continuous IV infusion over 10 days, 1.25 mM aminooxyacetate or 10 μM CHBA, beginning with a tumor volume of 1 ml, vs NaCl control
Experimental: As a tumor model, immuno-competent adult rats were used, treated with IV infusion. This animal model provides better correlation to human therapy than immuno-incompetent nude mice, which are commonly used. The animal tests were approved according to paragraph 8 section 1 of the German Animal Protection Act, and were performed according to the recommendations of the Tieraerztliche Vereinigung fuer Tierschutz e.V. (Veterinarians' Association for Animal Protection). Male inbreed rats (Sprague-Dawley, 200-250 g, Charles River, Sulzfeld, Germany) were used as tumor recipients.
Novikoff hepatoma was used as the source of tumor cells. Of several tested, experimentally produced tumors, the Novikoff hepatoma best all requirements of a solid tumor having all signs of malignity and similarity to hepatocellular carcinoma in humans. The Novikoff hepatoma was induced by Alex B. Novikoff in […] by feeding a diet containing 0.06% […] (butter yellow) to female Sprague-Dawley rats (Novikoff B., A transplantable rat liver tumour induced by 4-dimethylaminoazobenzene. Cancer Res. 1951; 17:1010). […] The chromatin structure in the tumor cells appears in an irregular form, and the nuclei are indented, round and oval.
The Deutsches Krebsforschungsinstitut in Heidelberg provided the Novikoff hepatoma cells. The cells were received in Hank's solution and intraperitoneally injected in a sterile manner into a Sprague-Dawley rat for passaging. Within a week, approximately 50 ml hemorrhagic ascites were generated and removed in a sterile manner. The pellet generated after centrifugation at 1,300 rpm for five minutes in a Falcon tube was prepped for further purification of cells from other ascites components by washing with 50 ml Dulbecco's MEM (Gibco BRL, Eggenstein) and centrifugation at 1,300 rpm for five minutes. The supernatant was decanted, and the pellet was mixed in Dulbecco's+40% fetal calf serum (FCS). 0.7 ml cell suspension and 0.7 freezing medium each were filled in Nunc tubes, airtight sealed, pre-cooled for five minutes at −20° C. and for 12 hours at −80° C., and then deep-frozen in liquid nitrogen. The freezing medium was 40% Dulbecco's, 40% FCS and 20% DMSO.
The cells were prepared for the application as follows: after thawing, the pellet was reacted in a Falcon tube with 50 ml of a medium (Dulbecco's+40% FCS), pre-heated to 37° C., and centrifuged for five minutes at 1,300 rpm. […]
After centrifugation and decantation of the supernatant, the pellet was suspended in HBSS, 100 microlitres were sampled with an Eppendorf pipette and counted for determining the number of vital cells after vital staining with erythrosine (BioMed, Munich, Germany) in a Neubauer counting chamber. […]
The tumor size was determined by CT-supported volumetry. […]

Novikoff hepatoma cells = assay: Dose-dependence of proliferation inhibition, cell density of cultivated Novikoff hepatoma cells; type: cell-based, rat; conditions: four days of cultivation, at higher dosage levels
Experimental: For the experiments, Novikoff hepatoma cells were cultivated in a conventional manner. The control substance contained a solvent without an active ingredient. The other groups received different doses of a respective test compound. After four days of cultivation with or without active ingredient, the cell density was determined using standard methods. In FIG. 2 is shown the dose-dependence of obtained cell densities for aminooxyacetate, in FIG. 3 for CHBA, in FIG. 4 for glycerate-2,3-bisphosphate, and in FIG. 5 for fructose-1,6-bisphosphate.

M2-PK = M2-PK (Homo sapiens, UniProt P14618); conditions: known from Eigenbrodt et al. 1992; cited from earlier work
Sequence of M2-PK (P14618 whole entry, species assumed): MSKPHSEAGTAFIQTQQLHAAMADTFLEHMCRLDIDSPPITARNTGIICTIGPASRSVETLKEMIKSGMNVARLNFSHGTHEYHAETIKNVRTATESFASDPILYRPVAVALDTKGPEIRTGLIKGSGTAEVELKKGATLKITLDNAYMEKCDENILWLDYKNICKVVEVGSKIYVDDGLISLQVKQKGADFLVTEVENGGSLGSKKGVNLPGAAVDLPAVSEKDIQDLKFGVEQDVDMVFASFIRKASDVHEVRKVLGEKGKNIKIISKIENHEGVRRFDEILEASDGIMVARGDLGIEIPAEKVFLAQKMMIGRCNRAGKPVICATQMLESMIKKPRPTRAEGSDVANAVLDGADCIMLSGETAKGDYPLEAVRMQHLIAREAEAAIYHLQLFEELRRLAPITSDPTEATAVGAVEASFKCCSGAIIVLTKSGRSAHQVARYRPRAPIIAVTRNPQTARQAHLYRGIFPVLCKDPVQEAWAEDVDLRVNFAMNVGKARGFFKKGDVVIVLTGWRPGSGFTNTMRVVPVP

cells = conditions: known from Eigenbrodt et al. 1994; cited from earlier work
[1] = target: T1, glutamate pyruvate transaminase (Homo sapiens, UniProt P24298); conditions: known from Eigenbrodt et al. 1994; cited from earlier work
T1 sequence (P24298 2-496 limits assumed): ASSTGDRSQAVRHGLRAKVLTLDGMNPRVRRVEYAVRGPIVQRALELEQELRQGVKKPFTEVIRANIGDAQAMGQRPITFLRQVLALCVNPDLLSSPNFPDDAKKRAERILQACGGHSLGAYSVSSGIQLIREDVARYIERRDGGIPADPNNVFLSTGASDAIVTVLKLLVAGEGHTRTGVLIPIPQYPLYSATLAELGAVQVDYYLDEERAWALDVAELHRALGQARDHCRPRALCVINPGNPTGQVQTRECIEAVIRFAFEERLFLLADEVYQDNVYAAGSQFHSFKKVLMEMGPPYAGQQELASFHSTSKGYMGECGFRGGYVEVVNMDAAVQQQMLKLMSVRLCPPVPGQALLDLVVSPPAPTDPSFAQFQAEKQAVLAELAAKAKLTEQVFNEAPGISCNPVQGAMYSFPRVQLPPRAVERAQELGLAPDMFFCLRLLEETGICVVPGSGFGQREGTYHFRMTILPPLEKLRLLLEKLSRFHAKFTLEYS

## CC(O)=C(C#N)C(=O)Nc1ccc(C(F)(F)F)cc1 [CHBA, 2-cyano-3-hydroxy-but-2-(4-trifluoromethyl-phenyl)-amide]
Novikoff hepatoma
  inhibition of tumor growth if the tumor was relatively small at the beginning of the treatment: practically complete inhibition
  inhibition of the tumor growth (tumor size): substantial inhibition
Novikoff hepatoma cells
  inhibition of cell density (proliferation): practically complete inhibition

## C[C@H](N)C(=O)O [alanine]
M2-PK
  inhibition of M2-PK: inhibit

## NOCC(=O)O [aminooxyacetate]
cells
  inhibition of the proliferation of cells: can inhibit
Novikoff hepatoma
  inhibition of tumor growth if the tumor was relatively small at the beginning of the treatment: practically complete inhibition
  inhibition of the tumor growth (tumor size): substantial inhibition
[1]
  inhibition of glutamate pyruvate transaminase: inhibit
Novikoff hepatoma cells
  inhibition of cell density (proliferation): practically complete inhibition

## N[C@@H]1CON=C1O [cycloserine, reference compound]
cells
  inhibition of the proliferation of cells: can inhibit
[1]
  inhibition of glutamate pyruvate transaminase: inhibit

## O=C(COP(=O)(O)O)[C@@H](O)[C@H](O)[C@H](O)COP(=O)(O)O [fructose-1,6-bisphosphate]
M2-PK
  displacement of the dimeric form to the highly active tetrameric form of M2-PK: leads to a displacement of the dimeric form to the highly active tetrameric form
Novikoff hepatoma cells
  inhibition of cell density (proliferation): practically complete inhibition

## O=C(O)C(COP(=O)(O)O)OP(=O)(O)O (stereo not drawn) [glycerate-2,3-bisphosphate]
Novikoff hepatoma cells
  inhibition of cell density (proliferation): practically complete inhibition

## CC(C)C[C@H](N)C(=O)O [leucine]
M2-PK
  inhibition of M2-PK: inhibit
